In the NIST ThermoML archive (doi:10.1021/je500886a):

Assay: mn = molality of the nth substance listed, in mol/kg
Details: 101 kPa, Liquid

O=C[C@H](O)[C@@H](O)[C@@H](O)[C@H](O)CO [(+)-galactose] + O
Details	mass density [kg/m3]	viscosity [mPa·s]
288.15 K, m1 = 0.05001	–	1.166
288.15 K, m1 = 0.05096	1002.7	–
288.15 K, m1 = 0.06903	1003.95	–
288.15 K, m1 = 0.07068	–	1.178
288.15 K, m1 = 0.09042	1005.42	–
288.15 K, m1 = 0.09059	–	1.189
288.15 K, m1 = 0.1099	–	1.199
288.15 K, m1 = 0.1289	–	1.208
288.15 K, m1 = 0.1513	–	1.22
288.15 K, m1 = 0.1552	1009.81	–
298.15 K, m1 = 0.05001	–	0.91
298.15 K, m1 = 0.05096	1000.58	–
298.15 K, m1 = 0.06903	1001.82	–
298.15 K, m1 = 0.07068	–	0.919
298.15 K, m1 = 0.09042	1003.27	–
298.15 K, m1 = 0.09059	–	0.927
298.15 K, m1 = 0.1099	–	0.935
298.15 K, m1 = 0.1102	1004.61	–
298.15 K, m1 = 0.1289	–	0.941
298.15 K, m1 = 0.1322	1006.08	–
298.15 K, m1 = 0.1513	–	0.951
308.15 K, m1 = 0.05001	–	0.734
308.15 K, m1 = 0.05096	997.56	–
308.15 K, m1 = 0.06903	998.79	–
308.15 K, m1 = 0.07068	–	0.741
308.15 K, m1 = 0.09042	1000.22	–
308.15 K, m1 = 0.09059	–	0.747
308.15 K, m1 = 0.1099	–	0.753
308.15 K, m1 = 0.1102	1001.54	–
308.15 K, m1 = 0.1289	–	0.758
308.15 K, m1 = 0.1322	1003	–
308.15 K, m1 = 0.1513	–	0.766
308.15 K, m1 = 0.1552	1004.51	–
318.15 K, m1 = 0.05001	–	0.607
318.15 K, m1 = 0.05096	993.7	–
318.15 K, m1 = 0.06903	994.91	–
318.15 K, m1 = 0.07068	–	0.612
318.15 K, m1 = 0.09042	996.33	–
318.15 K, m1 = 0.09059	–	0.617
318.15 K, m1 = 0.1099	–	0.621
318.15 K, m1 = 0.1102	997.64	–
318.15 K, m1 = 0.1289	–	0.625
318.15 K, m1 = 0.1322	999.07	–
318.15 K, m1 = 0.1513	–	0.63
318.15 K, m1 = 0.1552	1000.57	–

OC[C@H]1O[C@@](CO)(O[C@H]2O[C@H](CO)[C@@H](O)[C@H](O)[C@H]2O)[C@@H](O)[C@@H]1O [D-sucrose] + O
Details	mass density, 288.15 K [kg/m3]	mass density, 298.15 K [kg/m3]	mass density, 308.15 K [kg/m3]	mass density, 318.15 K [kg/m3]	viscosity, 288.15 K [mPa·s]	viscosity, 298.15 K [mPa·s]	viscosity, 308.15 K [mPa·s]	viscosity, 318.15 K [mPa·s]
m1 = 0.0482	1005.4	1003.28	1000.26	996.41	–	–	–	–
m1 = 0.05054	–	–	–	–	1.198	0.934	0.751	0.621
m1 = 0.06821	1007.96	1005.82	1002.79	998.92	–	–	–	–
m1 = 0.06969	–	–	–	–	1.221	0.951	0.766	0.632
m1 = 0.08888	1010.58	1008.42	1005.37	1001.49	–	–	–	–
m1 = 0.09107	–	–	–	–	1.242	0.969	0.78	0.645
m1 = 0.1095	1013.17	1010.99	1007.92	1004.02	–	–	–	–
m1 = 0.1098	–	–	–	–	1.264	0.984	0.793	0.654
m1 = 0.1286	1015.55	1013.35	1010.27	1006.35	–	–	–	–
m1 = 0.1293	–	–	–	–	1.286	1.001	0.805	0.666
m1 = 0.1495	1018.13	1015.9	1012.8	1008.87	–	–	–	–
m1 = 0.1497	–	–	–	–	1.31	1.019	0.819	0.675

O=C[C@@H](O)[C@@H](O)[C@H](O)[C@H](O)CO [D-mannose] + O
Details	mass density, 288.15 K [kg/m3]	mass density, 298.15 K [kg/m3]	mass density, 308.15 K [kg/m3]	mass density, 318.15 K [kg/m3]	viscosity, 288.15 K [mPa·s]	viscosity, 298.15 K [mPa·s]	viscosity, 308.15 K [mPa·s]	viscosity, 318.15 K [mPa·s]
m1 = 0.0501	–	–	–	–	1.168	0.912	0.735	0.608
m1 = 0.05278	1002.76	1000.64	997.63	993.78	–	–	–	–
m1 = 0.07151	1004.03	1001.9	998.87	995.02	1.181	0.92	0.742	0.613
m1 = 0.09003	1005.28	1003.14	1000.09	996.23	–	–	–	–
m1 = 0.09353	–	–	–	–	1.191	0.929	0.749	–
m1 = 0.1065	1006.39	1004.23	1001.17	997.3	–	–	–	–
m1 = 0.1123	–	–	–	–	1.201	0.936	0.756	0.624
m1 = 0.1277	–	1005.63	1002.56	998.67	–	–	–	–
m1 = 0.1318	–	–	–	–	1.214	0.945	0.761	0.628
m1 = 0.1488	–	–	1003.92	1000.02	–	–	–	–
m1 = 0.1515	–	–	–	–	1.225	0.952	0.766	0.634

OC[C@@H](O)[C@@H](O)[C@H](O)[C@@H](O)CO [D-sorbitol] + O
Details	mass density, 288.15 K [kg/m3]	mass density, 298.15 K [kg/m3]	mass density, 308.15 K [kg/m3]	mass density, 318.15 K [kg/m3]	viscosity, 288.15 K [mPa·s]	viscosity, 298.15 K [mPa·s]	viscosity, 308.15 K [mPa·s]	viscosity, 318.15 K [mPa·s]
m1 = 0.0479	–	–	–	–	1.169	0.914	0.736	0.609
m1 = 0.05068	1002.38	1000.23	997.2	993.33	–	–	–	–
m1 = 0.06467	–	–	–	–	1.183	0.921	0.742	0.614
m1 = 0.07063	1003.63	1001.46	998.41	994.53	–	–	–	–
m1 = 0.08656	–	–	–	–	1.197	0.932	0.75	0.62
m1 = 0.09024	1004.83	1002.65	999.59	995.7	–	–	–	–
m1 = 0.1057	1005.77	1003.58	1000.51	996.61	–	–	–	–
m1 = 0.106	–	–	–	–	1.21	0.942	0.756	0.624
m1 = 0.1249	–	–	–	–	1.226	0.951	0.765	0.631
m1 = 0.13	1007.24	1005.03	1001.95	998.04	–	–	–	–
m1 = 0.1451	–	–	–	–	1.239	0.959	0.772	0.635
m1 = 0.1465	1008.23	1006.01	1002.93	999	–	–	–	–

OC[C@@H](O)[C@H](O)[C@H](O)[C@@H](O)CO [dulcitol] + O
Details	mass density, 288.15 K [kg/m3]	mass density, 298.15 K [kg/m3]	mass density, 308.15 K [kg/m3]	mass density, 318.15 K [kg/m3]	viscosity, 288.15 K [mPa·s]	viscosity, 298.15 K [mPa·s]	viscosity, 308.15 K [mPa·s]	viscosity, 318.15 K [mPa·s]
m1 = 0.0503	–	–	–	–	1.164	0.909	0.732	0.605
m1 = 0.05086	1002.35	1000.21	997.18	993.33	–	–	–	–
m1 = 0.07104	–	–	–	–	1.175	0.916	0.737	0.609
m1 = 0.0735	1003.75	1001.6	998.55	994.68	–	–	–	–
m1 = 0.08768	1004.62	1002.46	999.39	995.51	–	–	–	–
m1 = 0.08872	–	–	–	–	1.185	0.921	0.743	0.612
m1 = 0.1066	1005.78	1003.6	1000.52	996.63	–	–	–	–
m1 = 0.1091	–	–	–	–	1.196	0.928	0.747	0.616
m1 = 0.1279	1007.07	1004.88	1001.77	997.86	–	–	–	–
m1 = 0.1283	–	–	–	–	1.204	0.935	0.752	0.619
m1 = 0.1457	1008.14	1005.94	1002.81	998.89	–	–	–	–
m1 = 0.1468	–	–	–	–	1.215	0.941	0.757	0.622

[Br-].[NH4+] [ammonium bromide] + O
Details	mass density, 288.15 K [kg/m3]	mass density, 298.15 K [kg/m3]	mass density, 308.15 K [kg/m3]	mass density, 318.15 K [kg/m3]	viscosity, 288.15 K [mPa·s]	viscosity, 298.15 K [mPa·s]	viscosity, 308.15 K [mPa·s]	viscosity, 318.15 K [mPa·s]
m1 = 0.05	1001.05	998.76	995.75	992.91	1.132	0.888	0.719	0.597
m1 = 0.5	1024.05	1021.81	1019.06	1015.68	1.096	0.87	0.71	0.598
m1 = 1	1049.01	1046.88	1043.31	1040.33	1.057	0.853	0.697	0.6
m1 = 2	1095.99	1092.56	1088.78	1085.68	1.002	0.827	0.678	0.602

O=C[C@@H](O)[C@H](O)[C@H](O)CO [D-(-)-arabinose] + O
Details	mass density, 288.15 K [kg/m3]	mass density, 298.15 K [kg/m3]	mass density, 308.15 K [kg/m3]	mass density, 318.15 K [kg/m3]	viscosity, 288.15 K [mPa·s]	viscosity, 298.15 K [mPa·s]	viscosity, 308.15 K [mPa·s]	viscosity, 318.15 K [mPa·s]
m1 = 0.05173	1002.09	999.97	996.94	993.08	–	–	–	–
m1 = 0.05178	–	–	–	–	1.157	0.905	0.73	0.604
m1 = 0.0695	–	–	–	–	1.164	0.909	0.734	0.608
m1 = 0.07102	1003.18	1001.05	998	994.13	–	–	–	–
m1 = 0.08979	–	–	–	–	1.17	0.915	0.738	0.611
m1 = 0.09055	1004.28	1002.13	999.06	995.18	–	–	–	–
m1 = 0.1077	–	–	–	–	1.177	0.92	0.741	0.614
m1 = 0.1093	1005.32	1003.17	1000.07	996.18	–	–	–	–
m1 = 0.1244	1006.17	1004	1000.88	996.98	–	–	–	–
m1 = 0.1267	–	–	–	–	1.182	0.925	0.745	0.616
m1 = 0.1476	1007.45	1005.26	1002.12	998.21	–	–	–	–
m1 = 0.151	–	–	–	–	1.191	0.932	0.75	0.621
